Experimental data: patent publication US7625917B2, “Thiolesters and uses thereof” (priority 1998, dated 2009)

How the values were obtained:
Pr55gag precursor = molecular target: T1, Pr55gag precursor (Human immunodeficiency virus type 1 group M subtype B, UniProt P03347); assay: Gag precursor cross-linking and processing in U1 cells (Western blotting); type: cell-based, HIV-1; conditions: TNFα-induced U1 cells
T1 construct: endogenous in cells; host or cells: U1 cells (latently HIV-1 infected), induced with TNFα
Protocol: Thiolester compounds were also tested for their ability to. inhibit HIV-1 replication in TNFα-induced U1 and ACH-2 cells. U1 cells were induced with 5 ng/ml of TNFα in the presence of various concentrations of the thiolesters 44, 45 or 47. Forty-eight hours later the cultures were characterized for virus p24 antigen production and cell viability. […] Compound 44 killed 60% of the cells at 200 μM. […] Precursor processing evaluation performed as described by Turpin (1997) Antiviral Chem. Chemother. 8:60-69. Thus, thiolester PATEs initiate intracellular disulfide cross-linking of precursor polyproteins during late phase virus assembly and mediate a direct virucidal effect via an attack on the mature NCp7 retroviral zinc fingers in the cell-free virus.
Virion cross linking was performed as described by Rice (1995) Science 270:1194-1197 and Turpin (1997) Antiviral Chem. Chemother. 8:60-67. Briefly, highly purified HIV-1MN (11.8 μg total protein) was incubated for 2 hour with concentrations of compound. Virions were concentrated and residual compound was removed by centrifugation (18,000×g, 1 h, 4° C.). The viral pellet was solubilized in 0.5 M Tris-HCl, (pH 6.8), 50% glycerol, 8% SDS and 0.4% bromophenol blue and proteins resolved by Western blotting. Western blotting to detect the expression of HIV-1 proteins in U1 cells or virus pellets for virion cross-linking experiments was carried out as described by Turpin (1996) J. Virol. 70:6180-6189. Briefly, 50 μg of total cellular protein for U1 experiments or the. total virion pellet (11.8 μg total viral protein) for NCp7 cross linking studies was resolved on 4 to 20% polyacrylamide gels in SDS with Tris-Glycine (Novex, San Diego Calif.). Samples for reduced gels were boiled for 5 min in the presence of 5% β-ME prior to loading. Resolved proteins were electroblotted on to polyvinylidene difluoride (PVDF) membranes, and HIV-1 specific proteins were detected using a mixture of goat anti-HIV-1 NCp7 and p24 or anti-NCp7 for virion proteins alone (a kind gift of L. E. Henderson, AIDS Vaccine Program NCI-FCRDC, Frederick, Md.). […]

[1] = molecular target: T2, recombinant HIV-1 protease (Human immunodeficiency virus type 1 group M subtype B, UniProt P03366); assay: HIV-1 protease substrate cleavage (HPLC) assay; type: biochemical
T2 construct: recombinant HIV-1 protease
Protocol: The 5-bromovaleroyl thioester, compound 44, and two 5-pyridiniovaleroyl thioesters, compounds 45and 47, were analyzed in mechanistic and target-based assays. […] Assays for activity against HIV-1 reverse transcriptase rAdT (template/primer) and rCdG (template/primer) using recombinant HIV-1 reverse transcriptase (S. Hughes, ABL Basic Research NCI-FCRDC, Frederick Md.) were performed as described by Rice (1997) supra. Substrate cleavage of recombinant HIV-1 protease in the presence of test compounds using an HPLC-based methodology with the artificial substrate Ala-Ser-Glu-Asn-Try-Pro-Ile-Val-amide (Multiple Peptide Systems, San Diego Calif.) was performed as described by Rice (1997) supra. The ability of recombinant HIV-1 integrase (S. Hughes, ABL Basic Research NCI-FCRDC, Frederick Md.) to carry out 3′ processing and strand transfer activities in the presence of test compounds was performed as described by Buckheit (1994) AIDS Res. Hum. Retroviruses 10:1497-1506, and Turpin (1998) Antimicrob. Agents Chemother. 42: 487-494.

NCp7 = NCp7 (Human immunodeficiency virus type 1 group M subtype B, UniProt P03347); assay: NCp7 oligonucleotide binding EMSA; type: biochemical, HIV-1; conditions: for concentration at which NCp7-oligonucleotide complex formation was inhibited: EMSA
Protocol: Zinc finger reactivity was measured using a Zn specific fluorochrome, TSQ, N-(6-methoxy-8-quinolyl)-p-toluenesulfonamide, assay or a Trp37 zinc finger fluorescence assay. Fluorescent measurements of the Trp37 residue in the C-terminal finger of recombinant HIV-1 NCp7 protein were performed as described by Rice (1995) Science 270:1194-1197; Rice (1997) Antimicrob. Agents Chemother. 41:419-426. Measurement of Zn ejection from both fingers was measured using the Zn-selective fluorchrome probe TSQ (Molecular Probes, Eugene Oreg.) as described by Rice (1996) J. Med. Chem 39:3606-3616. Measurement of the ability of NCp7 to bind to a DNA oligomer, a 44 mer: GGCGACTGGTGAGTACGCCAAAAATTTTGACTAGCGGAGGCTAG (SEQ ID NO:1), analogous to the HIV-1 RNA packaging site was carried out as described by Huang (1998) J. Med. Chem. 41:1371-1381, see also, Rossio (1998) HIV Pathogenesis and Treatment: Keystone Symposium on Molecular and Cellular Biology, Abstract # 4082. Briefly, 50 nM NCp7 was treated with test compounds for 1 hour at RT in […] buffer containing 10% glycerol and 50 mM Tris-HCl (pH 7.5). Labeled oligomer (0.1 picomole, end labeled [^32P] was added in an equal volume of buffer containing 10% glycerol, 50 mM Tris-HCl (pH 7.5), 400 mM KCl and 40 mM MgCl2. The reaction was continued for 15 min at room temperature, and a total of […] (or ¼ of the total reaction volume) was separated on nondenaturing 4.5% polyacrylamide gels in 0.5× Tris-Borate electrophoresis buffer. NCp7-oligomer complexes were visualized by autoradiography.
Interaction of zinc finger inhibitors with NCp7 can result in loss of protein structure and their ability to specifically bind oligonucleotides representing the HIV-1ψpackaging site (Huang (1998) supra; Tummino (1997) Antimicrob. Agents Chemother. 41:394-400; South (1993) Protein Sci. 2:3-19; Dannull (1994) EMBO J. 13:1525-1533). The ability of NCp7 to specifically associate with these oligonucleotides after treatment of the protein with a thiolester of the invention was tested. For example, compounds 44, 45 or 47 were very effective at inhibiting Ncp7's ability to associate with target oligonucleotide, as determined using electrophoretic mobility shift assays (EMSA) on nondenaturing polyacrylamide gels. At 1 μM, compound 45 inhibited complex formation. Compounds 44 and 47 inhibited complex formation at 100 μM (see Table 9).

SMILES	cross-linking and processing of viral precursor polyproteins (in words) (Pr55gag precursor)	inhibition of HIV-1 protease (in words) [1]	concentration at which NCp7-oligonucleotide complex formation was inhibited (NCp7) [µM]	IC50 [1] [µM]	IC50 (NCp7) [µM]
CC(=O)NS(=O)(=O)c1ccc(NC(=O)c2ccccc2SC(=O)CCCCBr)cc1 [Compound 44, N-[2-(5-bromovaleroylthio)benzoyl]sulfacetamide]	induced β-ME reversible alterations in the mobility of zinc finger containing HIV-1 precursor proteins at a intermediate level	did not inhibit	100		
CC(=O)NS(=O)(=O)c1ccc(NC(=O)c2ccccc2SC(=O)CCCC[n+]2ccccc2)cc1 [Compound 45, N-[2-(5-pyridinio-valeroylthio)benzoyl]sulfacetamide bromide]	induced cross-linking of viral precursor polyproteins and prevented processing of those precursors	did not inhibit	1		
O=C(CCCC[n+]1ccccc1)Sc1ccccc1C(=O)Nc1ccc(S(=O)(=O)c2ccc([N+](=O)[O-])cc2)cc1 [Compound 47]	induced cross-linking of viral precursor polyproteins and prevented processing of those precursors	did not inhibit	100	> 100	100
